Results as given in patent US6723732B1, “Percutaneously adminstrable preparations containing cerebral function activators” (Shionogi & Co., Ltd., priority 1998, dated 2004).
Like-named read-outs stand apart in the source and are kept apart here.

Key:
[1] = test system: acetylcholine release; assay: Acetylcholine release in frontal cortex dialysate (microdialysis) after percutaneous administration; format: in vivo, rat (Jcl Wistar strain male); details: 2, 4 and 8 mg/kg percutaneous, aqueous basic formulation 5.6 mg/mL; values only in FIG. 5 and 6
Method: The day before experiment, a dialysis probe of 2 mm membrane length was inserted into frontal cortex of non-fasting rats (Jcl Wistar strain male rat 9-11 W). On the day of experiment, abdominal region hair was removed using a hair clipper and shaver under 2% halothane anesthesia. The aqueous basic formulation containing 5.6 mg/mL of Compound (I-1) was administered at a volume of 0.125, 0.25 and 0.5 mL to the rayon cloths which area were 2.5, 5, and 10 cm^2, respectively (Dose: 2, 4 and 8 mg/kg). Then the rayon cloths were placed on the abdominal region by support tape and covered with gum tape. After the administration, acetylcholine concentration in dialysate was measured every 30 min. FIG. 5 indicates a time-course of acetylcholine release after the administration of Compound (I-1). The plot data express the percent of control and the control level was monitored before the administration of Compound (I-1) in the same rat. The AUC values were calculated for 4 hrs of acetylcholine release as the percent of control in FIG. 6.

[2] = Percutaneous administration by strapping technique to conscious rats (rayon cloth on abdominal region), plasma concentration by HPLC; format: in vivo, rat (Jcl Wistar strain male); details: for BA: absolute bioavailability, AUC percutaneous divided by AUC intravenous; for Percent of apparent absorption: residual drug in rayon cloth recovered at 24 hr; for Cmax / Tmax / AUC(0-t): male, Jcl Wistar, rat, plasma, topical or ocular, conscious rats; for Cmax: aqueous base 3% 1-menthol/30% ethanol/67% pH 4 phosphate buffer, 5.6 mg/mL; for Tmax / AUC(0-t): aqueous base pH 4, 5.6 mg/mL; for AUC(0-t): read-out: AUC 0-360 min (converted)
Method: The experiment was performed by the strapping technique under the conscious condition. Non-fasting rats (Jcl Wistar strain male rat 9-11 W) were cannulated in the jugular vein two days before the percutaneous administration experiment. On the day of experiment, abdominal region hair of rats were removed using a hair clipper and shaver under ether anesthesia. Three different volumes (0.125, 0.25, and 0.5 mL) of the aqueous basic formulation (3% 1-menthol/30% ethanol/67% pH 4 phosphate buffer) containing 5.6 mg/mL of Compound (I-1) were administered (2, 4, and 8 mg/kg) on the rayon cloths, which area were 2.5, 5, and 10 cm^2, respectively, supported by tape on the abdominal region then covered with gum tape. Blood samples were collected from the jugular vein of the rats in a cage, at the time of 0, 0.5, 1, 2, 3, 4, 6, 8, and 10 hr. Plasma concentrations were measured by HPLC. The rayon cloths were recovered at 24 hr after the administration and the residual drug was extracted by 30 mL of methanol in a 50 mL centrifuge tube and measured its concentration by HPLC. The percent of apparent absorption was calculated and the absolute bioavailability was calculated from the AUC of percutaneous administration divided by the AUC of intravenous administration.

[3] = Percutaneous administration to anesthetized rats (glass cell on abdominal skin), plasma concentration by HPLC and residual drug recovery; format: in vivo, rat (Jcl SD strain); details: for MRT / AUC / Cmax / Tmax: Jcl SD, rat, plasma, topical or ocular, N=3
Method: (I) A base was composed of 2.5% 1-menthol/20% ethanol/77.5% distilled water. The phosphate salt of Compound (I-1) as an active ingredient was dissolved or dispersed in it at concentrations of 1.4, 5.6, and 11.2 mg/mL. (II) To Non-fasting rats (Jcl SD strain rat, 9-10 weeks old) was injected 20% urethane solution subcutaneously (0.65 mL/100 g BW). After the anesthetic condition of the rat became stable, abdominal hair was removed using a hair clipper and shaver, then the rats were kept on a hotplate at 36° C. A glass cell (35 mm I.D. with a ground stopper) was attached using Aron alpha (trademark) in an abdominal region of the rat and absorbent gauze (about two sheets) was placed in the cell, then 0.5 mL of the above obtained pharmaceutical preparations of the invention was administrated to the cell (2, 8 or 16 mg/kg, N=3). (III) The time of blood collection: 0, 1, 2, 3, 4, 6, and 8 hr after the administration (IV) After the blood collection at 8 hrs, the residual drug in pharmaceutical preparations of the present invention in the cell was recovered by the addition of 50 mL of methanol. The percent of apparent absorption was calculated by the difference between the initial dose and the recovered amount at 8 hrs. AUC and MRT were calculated from plasma concentration profiles measured by HPLC. Furthermore, the skin to which the applied pharmaceutical preparations were applied and their subcutaneous part were removed and macroscopically checked after the experiments. A phosphate buffer of pH 9 was prepared from 1/15 mole of dibasic sodium phosphate dissolved in […] of distilled water. The phosphate buffers of pH 4 and pH 7 were prepared by the addition of phosphoric acid to the pH 9 buffer. A bBase was composed of 3% 1-menthol/30% ethanol/67% phosphate buffer. The phosphate salt of Compound (I-1) as an active ingredient was dissolved or dispersed in the base at a concentration of 5.6 mg/mL. Other conditions were the same as that of Experiment 1 (N=3). Results are represented in Table 2 and FIG. 2. The phosphate salt of Compound (I-1) as an active ingredient was dissolved or dispersed in bases in Table 3 at a concentration of 5.6 mg/mL. Other condition were the same as that of the Experiment 1. The 3% 1-menthol/30% ethanol/67% pH 4 phosphate buffer was selected as an aqueous base. The 2.5% 1-menthol/20% ethanol/77.5% isopropyl myristate was selected as an oily base. The phosphate salt of Compound (I-1) as an active ingredient was dissolved or dispersed in the aqueous or oily formulation at a concentration of 5.6 mg/mL. Other conditions were the same as that of Experiment 1 (N=3).

[4] = test system: skin; assay: Macroscopic check of the applied skin and subcutaneous part after the experiment (irritation); format: in vivo, rat (Jcl SD strain)
Method: (IV) After the blood collection at 8 hrs, the residual drug in pharmaceutical preparations of the present invention in the cell was recovered by the addition of 50 mL of methanol. The percent of apparent absorption was calculated by the difference between the initial dose and the recovered amount at 8 hrs. AUC and MRT were calculated from plasma concentration profiles measured by HPLC. Furthermore, the skin to which the applied pharmaceutical preparations were applied and their subcutaneous part were removed and macroscopically checked after the experiments.

[5] = 8 mg/kg, pH 4, aqueous base 3% 1-menthol/30% ethanol/67% pH 4 phosphate buffer, phosphate salt 5.6 mg/mL
[6] = 8 mg/kg, pH 4, base pH 4: 3% 1-menthol/30% ethanol/67% phosphate buffer, phosphate salt 5.6 mg/mL
[7] = 8 mg/kg, pH 7, base pH 7: 3% 1-menthol/30% ethanol/67% phosphate buffer, phosphate salt 5.6 mg/mL
[8] = 8 mg/kg, aqueous base 3% 1-menthol/30% ethanol/67% pH 4 phosphate buffer, phosphate salt 5.6 mg/mL
[9] = 8 mg/kg, oily base 2.5% 1-menthol/20% ethanol/77.5% isopropyl myristate, phosphate salt 5.6 mg/mL

BA ([2]; 2 mg/kg percutaneous): 30.92 ± 2.59% | Percent of apparent absorption ([2]; 2 mg/kg percutaneous): 63.9% | BA ([2]; 4 mg/kg percutaneous): 17.86 ± 6.40% | Percent of apparent absorption ([2]; 4 mg/kg percutaneous): 52.8% | BA ([2]; 8 mg/kg percutaneous): 22.68 ± 9.47% | Percent of apparent absorption ([2]; 8 mg/kg percutaneous): 60.0% | Cmax ([2]; 2 mg/kg percutaneous (0.125 mL, 2.5 cm^2)): 140 ± 30 ng/mL | Tmax ([2]; 2 mg/kg percutaneous): 1.25 h | AUC(0-t) ([2]; 2 mg/kg percutaneous): 375 ng·h/mL | Cmax ([2]; 4 mg/kg percutaneous (0.25 mL, 5 cm^2)): 170 ± 60 ng/mL | Tmax ([2]; 4 mg/kg percutaneous): 1.55 h | AUC(0-t) ([2]; 4 mg/kg percutaneous): 408 ng·h/mL | Cmax ([2]; 8 mg/kg percutaneous (0.5 mL, 10 cm^2)): 450 ± 150 ng/mL | Tmax ([2]; 8 mg/kg percutaneous): 0.85 h | AUC(0-t) ([2]; 8 mg/kg percutaneous): 1000 ng·h/mL | Percent of apparent absorption ([3]; 2 mg/kg percutaneous, phosphate salt in 2.5% 1-menthol/20% ethanol/77.5% distilled water, initial dose minus recovered amount at 8 hrs): 71.3% | Percent of apparent absorption ([3]; 8 mg/kg percutaneous, phosphate salt in 2.5% 1-menthol/20% ethanol/77.5% distilled water, initial dose minus recovered amount at 8 hrs): 81.0% | Percent of apparent absorption ([3]; 16 mg/kg percutaneous, phosphate salt in 2.5% 1-menthol/20% ethanol/77.5% distilled water, initial dose minus recovered amount at 8 hrs): 35.8% | MRT ([3]; 2 mg/kg, 2 mg/kg percutaneous, phosphate salt 1.4 mg/mL in 2.5% 1-menthol/20% ethanol/77.5% distilled water): 3.4 ± 0.6 h | AUC ([3]; 2 mg/kg, 2 mg/kg percutaneous, phosphate salt 1.4 mg/mL in 2.5% 1-menthol/20% ethanol/77.5% distilled water, blood to 8 hr): 490 ± 500 ng·h/mL | MRT ([3]; 8 mg/kg, 8 mg/kg percutaneous, phosphate salt 5.6 mg/mL in 2.5% 1-menthol/20% ethanol/77.5% distilled water): 3.6 ± 0.2 h | AUC ([3]; 8 mg/kg, 8 mg/kg percutaneous, phosphate salt 5.6 mg/mL in 2.5% 1-menthol/20% ethanol/77.5% distilled water, blood to 8 hr): 720 ± 50 ng·h/mL | AUC [3, 5]: 1610 ± 300 ng·h/mL | MRT [3, 5]: 2.2 ± 0.5 h | AUC [3, 6]: 1810 ± 300 ng·h/mL | MRT [3, 6]: 3 ± 0.2 h | AUC [3, 7]: 380 ± 180 ng·h/mL | MRT [3, 7]: 3.4 ± 0.3 h | Cmax [3, 8]: 690 ± 130 ng/mL | Tmax [3, 8]: 1.3 ± 0.6 h | AUC [3, 9]: 470 ± 100 ng·h/mL | Cmax [3, 9]: 160 ± 10 ng/mL | MRT [3, 9]: 2.6 ± 0.6 h | Tmax [3, 9]: 1 h | MRT ([3]; 16 mg/kg, 16 mg/kg percutaneous, phosphate salt 11.2 mg/mL in 2.5% 1-menthol/20% ethanol/77.5% distilled water): 4 ± 0.7 h | AUC ([3]; 16 mg/kg, 16 mg/kg percutaneous, phosphate salt 11.2 mg/mL in 2.5% 1-menthol/20% ethanol/77.5% distilled water, blood to 8 hr): 460 ± 180 ng·h/mL | Percent of apparent absorption ([3]; base 2.5% I-menthol, 20% ethanol, 77.5% isopropyl myristate, phosphate salt 5.6 mg/mL): 28.1% | Percent of apparent absorption ([3]; base pH 4: 3% 1-menthol/30% ethanol/67% phosphate buffer, phosphate salt 5.6 mg/mL): 66.8% | Percent of apparent absorption ([3]; base pH 7: 3% 1-menthol/30% ethanol/67% phosphate buffer, phosphate salt 5.6 mg/mL): 22.6% | Percent of apparent absorption ([3]; reference example base 5% N-methyl pyrrolidone, 5% ethanol, 90% isopropyl myristate, phosphate salt 5.6 mg/mL): 17.4% | Percent of apparent absorption ([3]; reference example base 5% ethanol, 95% isopropyl myristate, phosphate salt 5.6 mg/mL): 13.0% | Percent of apparent absorption ([3]; reference example base 5% lactic acid, 5% ethanol, 90% isopropyl myristate, phosphate salt 5.6 mg/mL): 11.9% | concentrations of Compound (I-1) in all plasma samples ([3]; reference example bases of Table 3, under the limit of detection): < 50 ng/mL
SMILES: c1cc(-c2nc3c4c(ncc3[nH]2)CCOC4)no1 [Compound (I-1), 2-(3-isoxazolyl)-3,6,7,9-tetrahydroimidazo[4,5-d]pyrano[4,3-b]pyridine]
acetylcholine release in frontal cortex dialysate (percent of control, time-course and AUC for 4 hrs) [1]: prolonged pharmacological effect | skin irritation (macroscopic check) ([4]; Experiment 1: all doses (2, 8, 16 mg/kg), 2.5% 1-menthol/20% ethanol/77.5% distilled water base): No irritations | skin irritation (macroscopic check) ([4]; Experiment 2: all formulations (pH 4 and pH 7 phosphate buffer bases), 5.6 mg/mL): No irritations
